These results are taken from patent US11291651B2, “Glycopyrrolate salts” (Journey Medical Corporation, priority 2013, dated 2022).

Molecules are shown by their SMILES.

The conditions of data set [1]: exposed to standard atmospheric conditions. An excerpt:
In addition, the extremely low glass transition renders the amorphous form of glycopyrrolate challenging to formulate successfully.

The nature of data set [2]: glass transition temperature by modulated DSC. It is filed as physicochemical. To be noted: amorphous solid. The method, then:
DSC was performed using a TA Instruments 2920 differential scanning calorimeter. Temperature calibration was performed using NIST-traceable indium metal. The sample was placed into an aluminum DSC pan, covered with a lid, and the weight was accurately recorded. A weighed aluminum pan configured as the sample pan was placed on the reference side of the cell. Modulated DSC data (see, e.g., FIG. 23) were obtained on a TA Instruments Q2000 differential scanning calorimeter equipped with a refrigerated cooling system (RCS). Temperature calibration was performed using NIST-traceable indium metal. The sample was placed into an aluminum DSC pan, and the weight was accurately recorded. The pan was covered with a lid perforated with a laser pinhole, and the lid was hermetically sealed. A weighed, crimped aluminum pan was placed on the reference side of the cell. Data were obtained using a modulation amplitude of ±1° C. and a 60 second period with an underlying heating rate of 2° C./minute from −50 to 220° C. The reported glass transition temperatures are obtained from the inflection point of the step change in the reversing heat flow versus temperature curve.

In data set [3] the target is M3 muscarinic acetylcholine receptor (Homo sapiens, UniProt P20309). Nature of the data set: binding affinity for the M3 muscarinic acetylcholine receptor in vitro. Conditions: glycopyrronium delivered as bromide or tosylate salt. An excerpt: (§1) Such dose dependency is consistent with glycopyrrolate's anti-muscarinic activity. Accordingly, glycopyrrolate tosylate may also be used to treat hyperhidrosis in patients such as by administering a topical containing glycopyrrolate tosylate. By topical, what is meant is a material or formulation comprising or containing glycopyrrolate tosylate which may be used to deliver glycopyrrolate tosylate, including a pharmaceutically effective amount of glycopyrrolate tosylate, to a patient. In many embodiments, the glycopyrrolate tosylate is threo glycopyrrolate tosylate. Examples of a topical include, but are not limited to, solutions, ointments, gels, lotions, powders, sprays, creams, cream bases, patches, pastes, washes, dressings, masks, gauzes, bandages, swabs, brushes, or pads. The application of the topical may be controlled by controlling the dose amount or the rate of release. The dose may be controlled by dissolving or dispensing threo glycopyrrolate tosylate, for example, in the appropriate medium. These and other dose controlling formulations may be used to deliver controlled doses such as specific unit doses, metered doses, or multiple doses from the topical.
Chain of M3 muscarinic acetylcholine receptor (P20309 whole entry): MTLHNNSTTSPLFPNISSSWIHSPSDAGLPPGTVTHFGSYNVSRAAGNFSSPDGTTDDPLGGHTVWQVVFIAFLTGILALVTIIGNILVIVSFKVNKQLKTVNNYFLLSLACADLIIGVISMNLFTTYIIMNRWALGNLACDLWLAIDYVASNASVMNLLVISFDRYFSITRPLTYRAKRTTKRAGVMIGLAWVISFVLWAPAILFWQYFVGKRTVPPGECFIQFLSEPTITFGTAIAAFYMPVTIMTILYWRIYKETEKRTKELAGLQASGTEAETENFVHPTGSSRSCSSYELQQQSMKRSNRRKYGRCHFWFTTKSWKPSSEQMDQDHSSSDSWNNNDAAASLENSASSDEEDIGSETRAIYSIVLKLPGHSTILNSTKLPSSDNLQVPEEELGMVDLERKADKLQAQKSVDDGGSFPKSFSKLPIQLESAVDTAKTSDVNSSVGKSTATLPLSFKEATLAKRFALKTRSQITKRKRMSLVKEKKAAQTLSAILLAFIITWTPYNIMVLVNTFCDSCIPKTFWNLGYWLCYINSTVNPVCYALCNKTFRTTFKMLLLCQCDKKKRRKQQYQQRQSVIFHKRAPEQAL

The test system of data set [4] is patients suffering from hyperhidrosis. Nature of the data set: study in patients suffering from hyperhidrosis treated with 2% and 4% glycopyrrolate formulations. In kind it is in vivo.
From the text: as §1, with “By” for “Such dose dependency is consistent with glycopyrrolate's anti-muscarinic activity. Accordingly, glycopyrrolate tosylate may also be used to treat hyperhidrosis in patients such as by administering a topical containing glycopyrrolate tosylate. By”

The test system of data set [5] is hyperhidrosis. Conditions: topically applied; compared with aluminum chloride; cited from earlier work.

`C[N+]1(C)CCC(OC(=O)C(O)(c2ccccc2)C2CCCC2)C1.Cc1ccc(S(=O)(=O)[O-])cc1.O` (stereo not drawn) [amorphous glycopyrrolate tosylate]: the hygroscopicity entry in data set [1] was “extremely hygroscopic which deliquesced readily”. Further, the “onset of the glass transition temperature” value in data set [2] was found to be 11.6 °C.
On to `C[N+]1(C)CCC(OC(=O)C(O)(c2ccccc2)C2CCCC2)C1` (stereo not drawn) [glycopyrrolate bromide, glycopyrronium bromide], for which the “binding affinity for the M3 muscarinic acetylcholine receptor” value in data set [3] is listed as “equivalent binding affinity”. Moreover, the efficacy responses result in data set [4] (2% and 4% glycopyrrolate formulations) is “dose dependent trend”. The axillary sweating entry in data set [4] (formulations containing 2% and 4% glycopyrrolate based on a glycopyrrolate bromide preparation) was “reduced”. For the same molecule, the effectiveness result in data set [5] is recorded as “increased effectiveness”.
